Reference: patent US7166612B2, “Methods for reducing platelet activation platelet aggregaton or thrombosis” (Beth Israel Deaconess Medical Center, priority 2001, dated 2007)

How the values were obtained:
platelets = assay: agonist-induced platelet granule secretion (P-selectin expression, flow cytometry); assay type: cell-based, human; settings: for effect on PMA-induced platelet activation: in words
Method: In order to assay platelet activation by cell surface marker expression, fresh PRP is isolated from donors who have not ingested aspirin for two weeks prior to donation. PRP (40 μl) is incubated with known or suspected inhibitor in DMSO or DMSO alone for 15 min. The sample is then incubated with the indicated agonist (e.g., SFLLR) for 10 min. Following incubation of the sample with the indicated agonist, 10 μl of reaction mixture is transferred to 5 μl of phycoerythrin (PE)-conjugated AC 1.2 anti-P-selectin antibody (for assessment of P-selectin surface expression) or fluorescein isothiocyanate (FITC)-conjugated PAC-1 antibody (for assessment of GPIIbIIIa activation). PBS (500 μl) is added to the sample after a 20 min incubation and the platelets are analyzed immediately by flow cytometry. Flow cytometry can be performed using, for example, a Becton-Dickinson FACSCalibur flow cytometer or its equivalent. Fluorescent channels are set at logarithmic gain. Ten thousand particles are acquired for each sample. A 530/30 band pass filter is used for FL-1 fluorescence. A 585/42 band pass filter is used for FL-2 fluorescence. FITC is measured in the FL-1 channel and PE is measured in the FL-2 channel. Data are analyzed using, for example, CellQuest software on a Macintosh PowerPC, or their equivalents. […]
Each of the compounds was tested for inhibition of platelet activation in response to the agonists SFLLR (a thrombin mimic), U46619 (a thromboxane A2 mimic), ADP and the phorbol ester PMA.
Compounds were also tested by flow cytometry for the inhibition of SFLLR-induced GPIIbIIIa activation and P-selectin expression. In these experiments, freshly obtained PRP was prepared from healthy volunteers who had not ingested aspirin for two weeks prior to donation. Forty μl of PRP was incubated with inhibitor in DMSO or DMSO alone for 15 min. The sample was then incubated with the indicated agonist for 10 min. Following incubation of the sample with the indicated agonist, 10 μl of reaction mixture was transferred to 5 μl of PE-conjugated AC1.2 anti-P-selectin antibody (for assessment of P-selectin surface expression) or FITC-conjugated PAC-1 antibody (for assessment of GPIIbIIIa activation). PBS (500 μl) was added to the sample after a 20 min incubation and the platelets were analyzed immediately by flow cytometry. Flow cytometry was performed using a Becton-Dickinson FACSCalibur flow cytometer. Fluorescent channels were set at logarithmic gain. Ten thousand particles were acquired for each sample. A 530/30 band pass filter was used for FL-1 fluorescence. A 585/42 band pass filter was used for FL-2 fluorescence. FITC was measured in the FL-1 channel and PE was measured in the FL-2 channel. Data were analyzed using CellQuest software on a MacIntosh PowerPC.
Compound was tested for its ability to inhibit SFLLR-, U46619-, ADP-, PMA-, and collagen I-induced platelet α-granule secretion. In these assays, platelets were incubated with increasing doses of compound for 30 minutes. The platelets were then exposed to a maximally stimulatory dose of the indicated agonist. P-selectin surface expression was analyzed by flow cytometry using phycoerythrin-anti-P-selectin to monitor for α-granule secretion.

human platelet PDE5 = biological target: T1, human platelet PDE5 (Homo sapiens, UniProt O76074); assay: phosphodiesterase inhibition, PDE5; assay type: biochemical; settings: up to 1 μM, in words
T1 construct: from tissue; host or cells: human platelets
Method: Intracellular cAMP generated by adenylyl cyclase in platelets is actively hydrolyzed by phosphodiesterase. […] Human platelets express PDE2, PDE3, and PDE5. Therefore, the compound was tested for its inhibitory effect on these phosphodiesterases using methods as described in Example 3.

[1] = system: thromboemboli from laser-induced thrombi; assay: thromboembolization from laser-induced thrombi (intravital videomicroscopy); assay type: in vivo, mouse
Method: (A) Thromboembolic events distal from the thrombus were captured using quantitative intravital fluorescence videomicroscopy with high temporal resolution( (111 frames/second) and the total amount of thromboembolization was calculated by determining the total fluorescence intensity of the fluorescently labeled platelets in thromboemboli. (B) Thromboembolization was recorded before infusion of pyridazinone compound. Platelet accumulation into thrombus is indicated by the gray line. Thromboembolism from the same thrombus is measured over time and is indicated by black bars. Each black bar represents a single thromboembolic event of the indicated fluorescent intensity.
Under these conditions, a dynamic thrombus that undergoes continuous cyclic embolization and re-accumulation is observed. The degree of embolization in an untreated mouse can be quantified using software for image analysis, e.g., BioQuant True Color Windows (Biometrics, Nashville, Tenn.), as described in Rosen et al., 2001, supra. […]
Using quantitative intravital fluorescence videomicroscopy with high temporal resolution, thromboemboli were detected and the total amount of fluorescence of the thromboemboli was measured (FIG. 11A). For this analysis, thromboembolus was defined as a platelet aggregate with a fluorescent intensity two standard deviations above the maximum background fluorescence of the arteriole before injury. […]

[2] = system: platelet F-actin assembly; assay: F-actin assembly (FITC-phalloidin, flow cytometry); assay type: cell-based; settings: in words
Text: To determine whether or not the effects of the pyridazinone compound were limited to inhibition of alpha-granule secretion, the ability of the compound to inhibit F-actin assembly and aIIbβ3 activation was examined. F-actin assembly was detected using FITC-phalloidin and quantified by flow cytometry (Winokur et al., 1995, Blood 85, 1796–804; Oda et al., 1992, Blood 79, 920–7).

[3] = listed as pyridazinone compound

In the case of CC1CC(=O)NN=C1c1ccc(N)c([N+](=O)[O-])c1 (centres unmarked) [6-(4-Amino-3-nitro-phenyl)-5-methyl-4,5-dihydro-2H-pyridazin-3-one], the “IC50s for ADP- and collagen-induced granule release less potent than SFLLR/U46619” value (platelets; ADP, collagen vs SFLLR, U46619) was “at least 25 fold”, the “effect on PMA-induced platelet activation” value (platelets; listed as Structure 8) was “did not inhibit” and the “effect on PMA-induced platelet activation” value (platelets; [3]) was “No inhibition”. For the same compound, the “inhibition of human platelet PDE5” value (human platelet PDE5; listed as Pyridazinone compound) was “No significant inhibition”, the “inhibition of human platelet PDE5” value (human platelet PDE5; [3]) was “little inhibition” and the thromboembolization after infusion ([1]; 1.2 mg/kg, in words) was “significantly reduced”. The reduction of embolization ([1]; after injection of compound) was “greater than 80%” and the “SFLLR-induced F-actin assembly” value [2] was “interferes with SFLLR-induced cytoskeleton rearrangement”.
